Assay results: article PMC8765437, “GSK3640254 Is a Novel HIV-1 Maturation Inhibitor with an Optimized Virology Profile” (Antimicrobial Agents and Chemotherapy, 2022)
Read-outs that look alike come from different tables or passages of the source.

Test system: HIV-1 viruses containing Gag region SDMs
Experiment: Single-cycle infection assay with Gag SDM viruses
Assay type: cell-based
Protocol: Single-cycle infection assays were performed as described previously ([10]). Half-maximal effective concentration values were calculated as the compound concentration that inhibits 50% of the maximal signal (no-drug control), correcting for background. Background was determined as the residual signal observed upon inhibition at the highest concentration of a control protease inhibitor, nelfinavir (3 μM). Half-maximal fold change effective concentration versus WT values were calculated by dividing the EC50 of the recombinant virus by the EC50 of WT RepRlucNL4-3 virus run in parallel.

[1] = Human immunodeficiency virus 1, read-out: Mean ± SD EC50, A364V
[2] = Human immunodeficiency virus 1, read-out: Mean ± SD EC50, A366V
[3] = Human immunodeficiency virus 1, read-out: Mean ± SD EC50, A366V/V370M
[4] = Human immunodeficiency virus 1, read-out: Mean ± SD EC50, H358Y/ΔT371
[5] = Human immunodeficiency virus 1, read-out: Mean ± SD EC50, I333V/V362I
[6] = Human immunodeficiency virus 1, read-out: Mean ± SD EC50, I333V/V370
[7] = Human immunodeficiency virus 1, read-out: Mean ± SD EC50, I333V/V370A
[8] = Human immunodeficiency virus 1, read-out: Mean ± SD EC50, M367V
[9] = Human immunodeficiency virus 1, read-out: Mean ± SD EC50, R361K/V362I/L363M
[10] = Human immunodeficiency virus 1, read-out: Mean ± SD EC50, T33N/V370A
[11] = Human immunodeficiency virus 1, read-out: Mean ± SD EC50, T332N/V370A
[12] = Human immunodeficiency virus 1, read-out: Mean ± SD EC50, T332S/V362I/prR41G
[13] = Human immunodeficiency virus 1, read-out: Mean ± SD EC50, V362I
[14] = Human immunodeficiency virus 1, read-out: Mean ± SD EC50, V362I/A366V
[15] = Human immunodeficiency virus 1, read-out: Mean ± SD EC50, V362I/A366V/V370M
[16] = Human immunodeficiency virus 1, read-out: Mean ± SD EC50, V362I/H219Q
[17] = Human immunodeficiency virus 1, read-out: Mean ± SD EC50, V362I/H219Q/T332S
[18] = Human immunodeficiency virus 1, read-out: Mean ± SD EC50, V362I/V370A
[19] = Human immunodeficiency virus 1, read-out: Mean ± SD EC50, V362I/V370M
[20] = Human immunodeficiency virus 1, read-out: Mean ± SD EC50, V370A
[21] = Human immunodeficiency virus 1, read-out: Mean ± SD EC50, V370M
[22] = Human immunodeficiency virus 1, read-out: Mean ± SD EC50, Wild type
[23] = Human immunodeficiency virus 1, read-out: Mean ± SD EC50, ΔV370

## C=C(C)[C@@H]1CC[C@]2(NCCN3CCS(=O)(=O)CC3)CC[C@]3(C)[C@H](CC[C@@H]4[C@@]5(C)CC=C(c6ccc(C(=O)O)cc6)C(C)(C)[C@@H]5CC[C@]43C)[C@@H]12 [GSK’795, reference compound]
A364V
  MPI: 8%
A366V
  MPI: 3%
A366V/V370M
  MPI: 3%
H358Y/ΔT371
  MPI: 18%
[1]
  EC50: > 3000 nM
[2]
  EC50: > 3000 nM
[3]
  EC50: > 3000 nM
[4]
  EC50: > 3000 nM
[5]
  EC50: > 3000 nM
[6]
  EC50: > 3000 nM
[7]
  EC50: > 3000 nM
[8]
  EC50: > 3000 nM
[9]
  EC50: > 3000 nM
[10]
  EC50: 30 nM
[11]
  EC50: 30 nM
[12]
  EC50: > 3000 nM
[13]
  EC50: 14 ± 6 nM
[14]
  EC50: > 3000 nM
[15]
  EC50: > 3000 nM
[16]
  EC50: 66 nM
[17]
  EC50: 710 nM
[18]
  EC50: > 3000 nM
[19]
  EC50: > 3000 nM
[20]
  EC50: 6 nM
[21]
  EC50: 13 ± 11 nM
[22]
  EC50: 5 ± 3 nM
[23]
  EC50: 110 nM
I333V/V362I
  MPI: −30%
I333V/V370
  MPI: −36%
I333V/V370A
  MPI: 10%
M367V
  MPI: 36%
R361K/V362I/L363M
  MPI: 36%
T33N/V370A
  MPI: 70%
T332N/V370A
  MPI: 70%
T332S/V362I/prR41G
  MPI: −30%
V362I
  MPI: 68%
V362I/A366V
  MPI: −109%
V362I/A366V/V370M
  MPI: −62%
V362I/H219Q
  MPI: 60%
V362I/H219Q/T332S
  MPI: 52%
V362I/V370A
  MPI: 31%
V362I/V370M
  MPI: 51%
V370A
  MPI: 84%
V370M
  MPI: 78%
Wild type
  MPI: 94%
ΔV370
  MPI: 60%

## C=C(C)[C@@H]1CC[C@]2(NCCN3CCS(=O)(=O)CC3)CC[C@]3(C)[C@H](CC[C@@H]4[C@@]5(C)CC=C(C6=CC[C@@](CF)(C(=O)O)CC6)C(C)(C)[C@@H]5CC[C@]43C)[C@@H]12 [GSK’254]
A364V
  MPI: 45%
A366V
  MPI: −7.6%
A366V/V370M
  MPI: 26%
H358Y/ΔT371
  MPI: 67%
Human immunodeficiency virus 1, V362I/V370A
  EC50: 4 nM
[1]
  EC50: > 3000 nM
[2]
  EC50: > 3000 nM
[3]
  EC50: > 3000 nM
[4]
  EC50: 35 ± 2 nM
[5]
  EC50: 39 ± 5 nM
[6]
  EC50: 11 ± 1 nM
[7]
  EC50: 11 ± 1 nM
[8]
  EC50: 15 ± 10 nM
[9]
  EC50: 14 ± 2 nM
[10]
  EC50: 3 nM
[11]
  EC50: 4 ± 1 nM
[12]
  EC50: 13 ± 9 nM
[13]
  EC50: 3 ± 1 nM
[14]
  EC50: > 3000 nM
[15]
  EC50: > 3000 nM
[16]
  EC50: 7 ± 2 nM
[17]
  EC50: 8 ± 3 nM
[18]
  EC50: 4 ± 1 nM
[19]
  EC50: 4 ± 2 nM
[20]
  EC50: 2 ± 1 nM
[21]
  EC50: 2 ± 1 nM
[22]
  EC50: 3 ± 2 nM
[23]
  EC50: 8 nM
I333V/V362I
  MPI: 65%
I333V/V370
  MPI: 86%
I333V/V370A
  MPI: 86%
M367V
  MPI: 89%
R361K/V362I/L363M
  MPI: 89%
T33N/V370A
  MPI: 94%
T332N/V370A
  MPI: 94%
T332S/V362I/prR41G
  MPI: 88%
V362I
  MPI: 89%
V362I/A366V
  MPI: −96%
V362I/A366V/V370M
  MPI: 1%
V362I/H219Q
  MPI: 91%
V362I/H219Q/T332S
  MPI: 91%
V362I/V370A
  MPI: 91%
V362I/V370M
  MPI: 90%
V370A
  MPI: 97%
V370M
  MPI: 93%
Wild type
  MPI: 98%
ΔV370
  MPI: 96%
